Results as given in ChEMBL document CHEMBL3393032, “Synthesis of oolongtheanins and their inhibitory activity on micellar cholesterol solubility in vitro” (Bioorg Med Chem Lett, 2015).

Assay: Inhibition of micellar solubility of cholesterol assessed as cholesterol solubility at 10 g/L using [4-14C]cholesterol incubated at 37 degC for 1 hr by liquid scintillation counting method
Type: physicochemical
Set-up: scale not given: the % may be the effect or the level left

Row | SMILES | Activity
1 | O=C1C(O)=C[C@@]2([C@H]3Oc4cc(O)cc(O)c4C[C@H]3O)Oc3c(O)c(O)cc([C@H]4Oc5cc(O)cc(O)c5C[C@H]4O)c3[C@@H]12 | 26.39%
2 | O=C(O[C@@H]1Cc2c(O)cc(O)cc2O[C@@H]1c1cc(O)c(O)c2c1[C@H]1C(=O)C(O)=C[C@@]1([C@H]1Oc3cc(O)cc(O)c3C[C@H]1OC(=O)c1cc(O)c(O)c(O)c1)O2)c1cc(O)c(O)c(O)c1 | 1.4%
